These results are taken from publication PMC6851324, “Design and development of stapled transmembrane peptides that disrupt the activity of G-protein–coupled receptor oligomers” (The Journal of Biological Chemistry, 2019).

One data set can be described thus: Stability in mouse serum. Format: in vitro ADME. The following applies: 11.1 μM peptide, fresh nonsterile mouse serum (200 μl serum + 25 μl peptide solution, pH 7.5 buffer with 10% DMSO), 37 °C, quench 15% TCA in acetonitrile, HPLC, n = 3; read-out: Half-life (hours), mouse serum (converted). The protocol: (§1) Figure 4. Biophysical analysis of stapled peptides. A, amino acid sequence alignment of the targeted TM regions and disrupting peptides. Cys residues are in the reduced state. Blue bridges indicate the stapled amino acid residues. […] Yields, purity, and MALDI-TOF data are shown for the stapled peptides and negative control. B, CD analysis of 30–50 μM peptides at 20 °C. For proteolytic stability studies, the peptide solution (55.5 μM for trypsin and chymotrypsin and 11.1 μM for serum) was incubated in the presence of 0.55 μg/ml trypsin from porcine pancreas (E), α-chymotrypsin (F), or mouse serum (G) at 37 °C for the indicated times (indicated on the x axis). Data are mean ± S.E. (error bars) (n = 3) percentage of intact peptide normalized to t = 0. Proteolytic half-lives and putative cleavage sites (predicted using the Expasy bioinformatics server's model with a 50% probability of cleavage) are indicated at the bottom of each panel. Positive correlation between helicity and half-life in trypsin/chymotrypsin (C) or serum (D) was determined by two-tailed Pearson's correlation test. TEXT PRINTED IN THE PICTURE: (B) TM7-TAT: Ellipticity (%): 3.4 | (B) TM6-TAT: Ellipticity (%): 18.3 | (B) TM5-TAT: Ellipticity (%): 20.9 | (B) 8: Ellipticity (%): 58.3 | (B) 9: Ellipticity (%): 46.4 | (B) 10: Ellipticity (%): 36.8 | (B) 11: Ellipticity (%): 46 | (E) TM7-TAT: Half-life (min): 21; #Cleavage sites: 8 | (E) TM6-TAT: Half-life (min): 40; #Cleavage sites: 7 | (E) TM5-TAT: Half-life (min): 33; #Cleavage sites: 8 | (E) 8: Half-life (min): 307; #Cleavage sites: 0 | (E) 9: Half-life (min): 178; #Cleavage sites: 0 | (E) 10: Half-life (min): 75; #Cleavage sites: 6 | (E) 11: Half-life (min): 84; #Cleavage sites: 0 | (F) TM7-TAT: Half-life (min): 22; #Cleavage sites: 6 | (F) TM6-TAT: Half-life (min): 32; #Cleavage sites: 7 | (F) TM5-TAT: Half-life (min): 28; #Cleavage sites: 7 | (F) 8: Half-life (min): 425; #Cleavage sites: 4 | (F) 9: Half-life (min): 198; #Cleavage sites: 3 | (F) 10: Half-life (min): 63; #Cleavage sites: 2 | (F) 11: Half-life (min): 79; #Cleavage sites: 4 | (G) TM7-TAT: Half-life (hours): 0.46 | (G) TM6-TAT: Half-life (hours): 0.55 | (G) TM5-TAT: Half-life (hours): 0.81 | (G) 8: Half-life (hours): ≥18 | (G) 9: Half-life (hours): 14.7 | (G) 10: Half-life (hours): 11.7 | (G) 11: Half-life (hours): 5.3 DOUBTS OF THE COPYIST ABOUT THIS PICTURE: Panel A table (Yield, Rt, Purity, [M+H+] calc., [M+H+] Peak Found for 7-11) left out as synthesis and mass-spectrum characterisation data; uncertain whether [M+H+] calc. should count as a molecular weight
(§2) Dose–response curves were fitted using a four-parameter logistic nonlinear regression mode. Peptide stability data were fitted using a nonlinear regression mode for dissociation kinetics. All statistical tests, curve fitting, and graphing were performed using GraphPad Prism 8 (GraphPad Software, La Jolla, CA).
To 200 μl of fresh nonsterile mouse serum was added 25 μl of peptide solution (100 μM, dissolved in ammonium bicarbonate buffer, pH 7.5, containing 10% DMSO), and the mixture was incubated at 37 °C. At the specified time, an aliquot of incubation mixture was withdrawn and quenched by the addition of an equal volume of 15% TCA in acetonitrile to precipitate out serum proteins over ice for 30 min. The mixture was then centrifuged at 13,500 rpm for 10 min, and the supernatant was collected and analyzed by HPLC in a similar manner as described previously. The experiment was repeated twice on different days.

Data set [1] concerns the target T1, trypsin from porcine pancreas (Sus scrofa, UniProt P00761).
T1 construct: purchased Sigma; host or cells: porcine pancreas
Description: Proteolytic stability against trypsin. The format is in vitro ADME. The following applies: pig, isolated enzyme trypsin; 55.5 μM peptide, 0.55 μg/ml trypsin from porcine pancreas, ammonium bicarbonate buffer pH 7.5, 37 °C, 15–480 min, intact peptide by RP-HPLC (Fmoc-Gly internal standard), n = 3, nonlinear regression fit; read-out: Half-life (min), trypsin. The protocol: as §1, §2
To 100 μl of peptide solution (100 μM, dissolved in ammonium bicarbonate buffer, pH 7.5), 60 μl of ammonium bicarbonate buffer (pH 7.5) was added, together with 20 μl of temperature-equilibrated (37 ± 1 °C) trypsin (5 μg/ml) from porcine pancreas (Sigma, 13,000–20,000 BAEE units/mg of protein). Peptides were incubated for 15, 30, 60, 120, 240, and 480 min, and then MeOH (HPLC Grade) + 0.05% TFA was added. The samples were then centrifuged (15,000 rpm), and the supernatant was analyzed, using Fmoc-Gly (10 μl, 0.2 mM) as an internal standard. The digestion at each time point was repeated three times to give the average values along with S.D. The amount of intact peptide that remained in the mixture was quantified by RP-HPLC. The experiment was repeated twice on different days.

Data set [2] addresses T2, α-chymotrypsin from bovine pancreas (Bos taurus, UniProt P00766, DEL14-15/DEL147-148).
T2 construct: purchased Sigma Type II; host or cells: bovine pancreas
Description: Proteolytic stability against chymotrypsin. Format: in vitro ADME. The following applies: cattle, isolated enzyme chymotrypsin; 55.5 μM peptide, 0.55 μg/ml α-chymotrypsin from bovine pancreas, ammonium bicarbonate buffer pH 7.5, 37 °C, 15–480 min, intact peptide by RP-HPLC, n = 3, nonlinear regression fit; read-out: Half-life (min), α-chymotrypsin. The protocol: as §1, §2
To 100 μl of peptide solution (100 μM, dissolved in ammonium bicarbonate buffer, pH 7.5), 60 μl of ammonium bicarbonate buffer (pH 7.5) was added, together with 20 μl of temperature-equilibrated (37 ± 1 °C) α-chymotrypsin (5 μg/ml) from bovine pancreas (Sigma, Type II, activity > 40 units/mg protein). Peptides were incubated for 15, 30, 60, 120, 240, and 480 min, and then MeOH (HPLC grade) + 0.05% TFA was added. The samples were then centrifuged (15,000 rpm), and supernatant was analyzed in a similar manner as described above. The experiment was repeated twice on different days.

For a further data set, the system named is 5-HT2AR–CB1R heteromers. Also noted: method as in 2 sources, ref 16 = [16]; PMID 26158621; doi:10.1371/journal.pbio.1002194; 16. Viñals X. , Moreno E. , Lanfumey L. , Cordomí A. , Pastor A. , de La Torre R. , Gasperini P. , Navarro G. , Howell L. A. , Pardo L. , Lluís C. , Canela E. I. , McCormick P. J. , Maldonado R. , and ||| ref 4, unpublished observations. The following applies: synthetic TM-mimicking peptides fused to HIV-TAT; cited from earlier work.

Data set [3] addresses T3, 5-HT2AR N-terminally tagged with LgBiT or SmBiT, CMV promoter (human, UniProt P28223 1-471).
T3 construct: 5-hydroxytryptamine 2A receptor (5-HT2AR), human, cloned from the cDNA Resource Center plasmid; also called SmBiT–5-HT2AR; SmBiT 5-HT2AR; source: HEK293, transiently transfected (CMV promoter), live cells; not shown: LgBiT or SmBiT (one of the two on each copy; SmBiT in the peptide screen), N-terminal, kept
Description: split reporter (BiFC, NanoBiT); NanoBiT orientation screens: LgBiT and SmBiT receptor fusions (C- or N-terminal, CMV promoter) transiently co-transfected in HEK293 cells at 50 or 100 ng of receptor/well, compared with each construct alone; live cells, 24 h post-transfection, furimazine substrate. The following applies: partners not purified.

Where a SMILES comes first, the peptide text is derived from it.

T1 sequence (P00761 9-231): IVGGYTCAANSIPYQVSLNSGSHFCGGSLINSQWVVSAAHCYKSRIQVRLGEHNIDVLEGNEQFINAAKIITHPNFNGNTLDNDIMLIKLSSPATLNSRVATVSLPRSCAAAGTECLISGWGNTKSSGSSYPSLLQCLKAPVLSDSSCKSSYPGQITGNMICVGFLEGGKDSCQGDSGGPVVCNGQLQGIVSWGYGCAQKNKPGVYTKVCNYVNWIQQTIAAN
T3 sequence (P28223 whole entry): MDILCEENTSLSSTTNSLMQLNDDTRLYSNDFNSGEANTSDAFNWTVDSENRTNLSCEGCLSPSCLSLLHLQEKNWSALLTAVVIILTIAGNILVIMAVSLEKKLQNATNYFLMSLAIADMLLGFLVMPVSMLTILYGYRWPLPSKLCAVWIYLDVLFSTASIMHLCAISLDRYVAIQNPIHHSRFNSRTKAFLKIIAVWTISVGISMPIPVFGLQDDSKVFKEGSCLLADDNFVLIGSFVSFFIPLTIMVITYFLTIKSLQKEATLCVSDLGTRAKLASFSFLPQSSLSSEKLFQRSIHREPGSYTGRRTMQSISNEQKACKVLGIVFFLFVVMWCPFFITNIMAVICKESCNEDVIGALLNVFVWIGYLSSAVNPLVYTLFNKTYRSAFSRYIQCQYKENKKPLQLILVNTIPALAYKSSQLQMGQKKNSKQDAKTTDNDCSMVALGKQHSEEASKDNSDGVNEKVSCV

What is called half-life is how long it takes for the measured level to halve. On to `CC[C@H](C)[C@H](NC(=O)[C@@H](NC(=O)[C@@H]1CCCN1C(=O)[C@H](CC(N)=O)NC(=O)[C@@H](NC(=O)[C@@H](NC(=O)[C@H](CO)NC(=O)[C@H](CC(N)=O)NC(=O)[C@H](CC(C)C)NC(=O)[C@H](CC(C)C)NC(=O)[C@H](CS)NC(=O)[C@H](CC(C)C)NC(=O)[C@H](CCSC)NC(=O)[C@H](CO)NC(=O)[C@H](CS)NC(=O)[C@H](Cc1ccccc1)NC(=O)[C@H](C)NC(=O)[C@H](Cc1ccccc1)NC(=O)[C@@H](NC(=O)[C@@H](NC(=O)[C@H](CCCCN)NC(=O)[C@@H](NC(=O)[C@@H](N)CC(C)C)[C@@H](C)CC)[C@@H](C)O)C(C)C)[C@@H](C)O)C(C)C)[C@@H](C)CC)C(=O)N[C@@H](Cc1ccc(O)cc1)C(=O)N[C@@H](C)C(=O)N[C@@H](CC(C)C)C(=O)N[C@@H](CCCNC(=N)N)C(=O)NCC(=O)N[C@@H](CCCNC(=N)N)C(=O)N[C@@H](CCCCN)C(=O)N[C@@H](CCCCN)C(=O)N[C@@H](CCCNC(=N)N)C(=O)N[C@@H](CCCNC(=N)N)C(=O)N[C@@H](CCC(N)=O)C(=O)N[C@@H](CCCNC(=N)N)C(=O)N[C@@H](CCCNC(=N)N)C(=O)N[C@@H](CCCNC(=N)N)C(=O)O` [TM7-TAT, reference compound] (H-LIKTVFAFCSMLCLLNSTVNPIIYALRGRKKRRQRRR-OH), for which, in the data set “Stability in mouse serum”, the half-life at 11.1 μM was 0.46 h. The results for the half-life at 55.5 μM in data set [1] and in data set [2] were 21 min and 22 min, respectively. Also, in the data set on 5-HT2AR–CB1R heteromers, the “disruption of 5-HT2AR–CB1R heteromers (previous studies)” value was “did not disrupt the heteromer”.

B1: CB1R N-terminally tagged with LgBiT or SmBiT, CMV promoter (receptor, human, UniProt P21554 1-472, looked up)
chain: MKSILDGLADTTFRTITTDLLYVGSNDIQYEDIKGDMASKLGYFPQKFPLTSFRGSPFQEKMTAGDNPQLVPADQVNITEFYNKSLSSFKENEENIQCGENFMDIECFMVLNPSQQLAIAVLSLTLGTFTVLENLLVLCVILHSRSLRCRPSYHFIGSLAVADLLGSVIFVYSFIDFHVFHRKDSRNVFLFKLGGVTASFTASVGSLFLTAIDRYISIHRPLAYKRIVTRPKAVVAFCLMWTIAIVIAVLPLLGWNCEKLQSVCSDIFPHIDETYLMFWIGVTSVLLLFIVYAYMYILWKAHSHAVRMIQRGTQKSIIIHTSEDGKVQVTRPDQARMDIRLAKTLVLILVVLIICWGPLLAIMVYDVFGKMNKLIKTVFAFCSMLCLLNSTVNPIIYALRSKDLRHAFRSMFPSCEGTAQPLDNSMGDSDCLHKHANNAASVHRAAESCIKSTVKIAKVTMSVSTDTSAEAL
notes: cannabinoid receptor type 1 (CB1R), human, cloned from the cDNA Resource Center plasmid; also called LgBiT–CB1R; LgBT–CB1R; source: HEK293, transiently transfected (CMV promoter), live cells; not shown: LgBiT or SmBiT (one of the two on each copy; LgBiT in the peptide screen), N-terminal, kept
For B1, the “fold change of luminescence over the individual receptor construct” value in data set [3] is around 200 fold.
